Data on eight compounds can be found in PMC5412352 (International Journal of Molecular Sciences, 2017).

Where two headings read alike, the source gives them in different places.

The target of data set [1] is T1, hGhrR (COS7 cells stably transfected with hGhrR) (Homo sapiens, UniProt Q92847).
T1 construct: expressed in transfected cells
Kind of data set: Inositol phosphate accumulation assay, antagonistic potency with 10^-8 M ghrelin. Format: cell-based. As to conditions: for Emax: COS-7, read-out: Emax (antagonistic efficacy). The procedure:
Antagonistic properties at the hGhrR
antagonistic potency in an inositol phosphate accumulation assay (Table S1). The receptor was
Table S1. Inositol phosphate accumulation assay to determine antagonistic potencies of candidate
Compounds were analyzed by inositol phosphate accumulation in COS7 cells stably

For a further data set, the target named is T2, rat σ2 receptor (Rattus norvegicus, UniProt Q5U3Y7).
T2 construct: rat σ2 receptor = rat liver homogenate; from tissue; host or cells: rat liver homogenate
T2 sequence (Q5U3Y7 1-176): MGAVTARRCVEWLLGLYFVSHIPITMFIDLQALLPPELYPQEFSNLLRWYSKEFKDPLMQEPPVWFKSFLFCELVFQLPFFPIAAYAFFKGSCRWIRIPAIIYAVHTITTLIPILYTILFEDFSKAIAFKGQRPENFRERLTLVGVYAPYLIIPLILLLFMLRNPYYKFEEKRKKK
Kind of data set: Selectivity radioligand displacement, [3H]DTG, rat liver homogenate. Format: binding. As to conditions: [3H]DTG + 1 µM dextrallorphan. How it is done:
[…]
(§1) The incubations were terminated by rapid filtration via glass-fiber filters presoaked in PEI (0.3%, 60 min at rt), and the filter-bound radioactivity was counted by liquid scintillation counting (Tricarb, PerkinElmer).

The nature of data set [2]: HPLC-based chromatographic hydrophobicity index on immobilized artificial membranes (CHI IAM). Format: physicochemical. As to conditions: IAM PC DD2 column, acetonitrile / 50 mM ammonium acetate gradient. An excerpt:
Physicochemical properties of a drug such as lipophilicity and non-specific binding to membranes and plasma proteins are crucial parameters of a potential radiotracer, in particular if it is supposed to pass the blood brain barrier (BBB). The lipophilicity (logD7.4) was estimated using the commercially available ACD/Labs-12.5 software and the non-specific binding was estimated by the high-performance liquid chromatography (HPLC)-based hydrophobicity index at immobilized artificial membranes (CHI IAM) for seven fluorine substituted candidate molecules and (S)-13 without fluorine (Table 3).
The chromatographic hydrophobicity index on immobilized artificial membranes (CHI IAM) was experimentally determined by a HPLC method described by Valko and co-workers using a IAM PC DD2 column (100 × 4.6 mm, […], Regis Technologies, IL, USA), a gradient of acetonitrile, and 50 mM ammonium acetate as eluent and acetanilide, acetophenone, 1,4-dinitrobenzene, anisole propiophenone, valerophenone, and octanophenone as references.

Data set [3] has as its target hGhrR (COS7 cells stably expressing hGhrR-eYFP) (Homo sapiens, UniProt Q92847). Kind of data set: cell-based. As to conditions: for Emax: COS-7, mean ± SEM, refers to ghrelin Emax as 100%, 0% = constitutive receptor activity.
Protocol: For that purpose, the inositol phosphate accumulation assay was used [43, 44].
Briefly, 60,000 to 80,000 cells/well of COS7 cells, stably expressing the fusion protein hGhrR-eYFP, were seeded in 48-well plates in Dulbecco’s modified Eagle’s medium (DMEM) with 10% fetal calf serum (FCS) and 0.4 mg/mL hygromycin B. The next day, the cells were labeled with [2-^3H]-myo-inositol (2 µCi/mL, PerkinElmer). […] Cell debris was removed and the supernatant purified on an anion-exchange resin (BioRad, Hercules, CA, USA). The obtained data were analyzed with GraphPad Prism 5.0 (GraphPad Software, San Diego, CA, USA). […] EC50/IC50 values were calculated from at least three independent experiments. Emax is defined as the difference between maximal and minimal effect in presence of the compound.
Data set [4] addresses human GhrR (hGhrR-eYFP, HEK293 cell membranes) (Homo sapiens, UniProt Q92847). Kind of data set: Competitive radioligand binding assay with [125I-His9]ghrelin at hGhrR membranes. Conditions: for fold higher IC50 than (S)-9: hGhrR binding IC50 relative to starting compound (S)-9.
Protocol: Each concentration was tested in duplicate. The membrane-bound radioligand was trapped on a Filtermat B (PerkinElmer) pre-soaked with 0.1% polyethylenimine in H2O by using a filtermat harvester (PerkinElmer). After drying for 20 min at 55 °C, a Meltilex scintillation sheet (PerkinElmer) was melted onto the filtermat and the samples were counted in a Microbeta scintillation counter (PerkinElmer).
The next data set addresses T3, human α3β4 nAChR (Homo sapiens, UniProt P30926+P32297).
T3 construct: expressed in transfected cells; host or cells: HEK cells (by courtesy of Dominik Feuerbach, Novartis), homogenate
Kind of data set: Selectivity radioligand displacement, [3H]epibatidine, transfected HEK cells. Format: binding. As to conditions: read-out: Ki at α3β4 nAChRs. The procedure:
[…]
as §1

[5] abbreviates: 5 min pre-stimulation with compound, then 10^-8 M ghrelin, read-out: IC50 (antagonistic potency).
[6] abbreviates: EC50, 2 h stimulation in absence of ghrelin, COS7-hGhrR.
The mark [7] stands for this setting: pEC50, mean ± SEM, 2 h stimulation in absence of ghrelin.

T1 sequence (Q92847 whole entry): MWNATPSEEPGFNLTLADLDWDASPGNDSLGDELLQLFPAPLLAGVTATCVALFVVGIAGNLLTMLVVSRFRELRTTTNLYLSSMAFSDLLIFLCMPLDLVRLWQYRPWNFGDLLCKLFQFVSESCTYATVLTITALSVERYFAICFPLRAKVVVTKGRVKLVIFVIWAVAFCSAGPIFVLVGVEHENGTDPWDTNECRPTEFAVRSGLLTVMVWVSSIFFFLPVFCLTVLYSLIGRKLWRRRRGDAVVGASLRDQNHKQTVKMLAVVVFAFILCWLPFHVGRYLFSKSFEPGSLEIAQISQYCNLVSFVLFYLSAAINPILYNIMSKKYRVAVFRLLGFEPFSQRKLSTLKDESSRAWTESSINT
hGhrR (COS7 cells stably expressing hGhrR-eYFP), sequence (Q92847 whole entry): as above
human GhrR (hGhrR-eYFP, HEK293 cell membranes), sequence (Q92847 whole entry): as above
T3 sequence (P32297 32-505): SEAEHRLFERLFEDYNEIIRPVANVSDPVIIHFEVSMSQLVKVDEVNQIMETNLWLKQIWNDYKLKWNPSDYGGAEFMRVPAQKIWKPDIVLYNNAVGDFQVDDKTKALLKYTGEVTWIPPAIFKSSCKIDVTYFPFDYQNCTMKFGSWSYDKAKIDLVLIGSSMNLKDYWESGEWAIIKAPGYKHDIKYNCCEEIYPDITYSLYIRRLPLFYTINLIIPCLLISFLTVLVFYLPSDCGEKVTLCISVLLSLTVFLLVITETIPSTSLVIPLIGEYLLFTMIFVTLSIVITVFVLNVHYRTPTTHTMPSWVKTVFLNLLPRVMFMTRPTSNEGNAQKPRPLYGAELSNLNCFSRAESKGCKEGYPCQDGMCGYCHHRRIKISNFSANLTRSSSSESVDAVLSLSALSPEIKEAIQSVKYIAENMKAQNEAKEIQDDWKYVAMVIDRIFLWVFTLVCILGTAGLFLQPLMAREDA
T3 sequence (P30926 22-498): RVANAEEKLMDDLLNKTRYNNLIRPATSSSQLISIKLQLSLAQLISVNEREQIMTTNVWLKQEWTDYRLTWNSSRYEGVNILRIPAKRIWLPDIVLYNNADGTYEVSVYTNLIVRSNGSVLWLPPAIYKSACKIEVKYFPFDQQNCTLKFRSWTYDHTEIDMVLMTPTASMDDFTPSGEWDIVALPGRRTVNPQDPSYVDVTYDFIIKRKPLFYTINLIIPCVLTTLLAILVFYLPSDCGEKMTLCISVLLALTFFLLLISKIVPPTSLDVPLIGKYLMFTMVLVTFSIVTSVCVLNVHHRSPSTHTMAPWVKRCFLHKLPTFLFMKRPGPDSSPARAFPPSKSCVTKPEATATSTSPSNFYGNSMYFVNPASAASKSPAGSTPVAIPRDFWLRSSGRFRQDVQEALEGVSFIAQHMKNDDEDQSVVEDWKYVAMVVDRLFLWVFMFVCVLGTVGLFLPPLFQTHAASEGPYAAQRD

`Cc1nc2ccc(Oc3ccc(Br)cc3F)nc2c(=O)n1C[C@@H]1CCCN(C(C)C)C1` [(R)-9, (R)-6-(4-Bromo-2-fluorophenoxy)-3-((1-isopropylpiperidin-3-yl)methyl)-2-methylpyrido[3,2-d]pyrimidin-4(3H)-one]: the IC50 in data set [1] (setting [5]) is 17.5 nM; in data set [4] it was 3.89 nM. Besides, the maximal response (Emax) is 45 ± 5% in data set [1] and around 60% in data set [3]. Moreover, at rat σ2 receptor, the Ki came out at 53 ± 7 nM. Further, the “CHI IAM” value in data set [2] is recorded as 42.8. The half-maximal effective concentration (EC50) in data set [3] (setting [6]) is 0.6 nM; in data set [3] (setting [7]), 0.55 nM.
In the case of `Cc1nc2ccc(Oc3ccc(Br)cc3F)nc2c(=O)n1C[C@H]1CCCN(CCF)C1` [(S)-10, (S)-6-(4-Bromo-2-fluorophenoxy)-3-((1-(2-fluoroethyl)piperidin-3-yl)methyl)-2-methylpyrido[3,2-d]pyrimidin-4(3H)-one], the IC50 in data set [1] (setting [5]) came to 345 nM; in data set [4], 69 nM. In addition, the Emax is 22 ± 4% in data set [1] and around 60% in data set [3]. For the same compound, the “CHI IAM” value in data set [2] amounted to 39.6. Further, a half-maximal effect in data set [3] (setting [7]) (EC50) was put at 1.58 nM. Further, the “fold higher IC50 than (S)-9” value in data set [4] is “about 30 fold”.
In the case of `Cc1nc2ccc(Oc3ccc(Br)cc3F)nc2c(=O)n1C[C@H]1CCCN(CCCF)C1` [(S)-11, (S)-6-(4-Bromo-2-fluorophenoxy)-3-((1-(3-fluoropropyl)piperidin-3-yl)methyl)-2-methylpyrido[3,2-d]pyrimidin-4(3H)-one], the IC50 in data set [1] (setting [5]) was 349 nM; in data set [4] it was 66 nM. In addition, the Emax in data set [1] was 56 ± 10%; in data set [3], around 60%. Further, the Ki at human α3β4 nAChR is 27 ± 8 nM. The “CHI IAM” value in data set [2] turned out to be 42.2. This compound also had an EC50 in data set [3] (setting [7]) of 2.88 nM. The “fold higher IC50 than (S)-9” value in data set [4] is on record as “about 30 fold”.
As for `Cc1nc2ccc(Oc3ccc(Br)cc3F)nc2c(=O)n1C[C@H]1CCCN(CCCCF)C1` [(S)-12, (S)-6-(4-Bromo-2-fluorophenoxy)-3-((1-(4-fluorobutyl)piperidin-3-yl)methyl)-2-methylpyrido[3,2-d]pyrimidin-4(3H)-one], the Ki at human α3β4 nAChR amounted to 64 ± 14 nM. For the same compound, the “CHI IAM” value in data set [2] is on record as 43.3. Besides, the IC50 in data set [4] is 574 nM.
For `Cc1nc2ccc(Oc3ccc(Br)cc3F)nc2c(=O)n1C[C@H]1CCCN(C(C)CF)C1` (stereo partly drawn) [(S)-13, 6-(4-Bromo-2-fluorophenoxy)-3-(((3S)-1-(1-fluoropropan-2-yl)piperidin-3-yl)methyl)-2-methylpyrido[3,2-d]pyrimidin-4(3H)-one], the IC50 in data set [1] (setting [5]) is 207 nM; in data set [1] (mean ± SEM, with 10^-8 M ghrelin, read-out: pIC50 (antagonistic potency) (converted)) it was 204 nM; in data set [4] it was 12.6 nM. Moreover, the results for the Emax in data set [1] and in data set [3] were 31 ± 5% and around 60%, respectively. In data set [2], the “CHI IAM” value was found to be 42.8. Moreover, the EC50 in data set [3] (setting [6]) is 1.4 nM; in data set [3] (setting [7]), 1.35 nM.
For `Cc1nc2ccc(Oc3ccc(Br)cc3)nc2c(=O)n1C[C@H]1CCCN(C(C)C)C1` [(S)-14], the IC50 was 123 nM in data set [1] (setting [5]) and 12.3 nM in data set [4]. Moreover, the Emax is 57 ± 6% in data set [1] and 42 ± 4% in data set [3]. Moreover, the “CHI IAM” value in data set [2] was found to be 42.8. In data set [3] (setting [7]), this compound had an EC50 of 2.14 nM.
With `CC(C)N1CCC[C@H](Cn2cnc3ccc(Oc4ccc(Br)cc4F)nc3c2=O)C1` [(S)-16, (S)-6-(4-Bromo-2-fluorophenoxy)-3-((1-isopropylpiperidin-3-yl)methyl)pyrido[3,2-d]pyrimidin-4(3H)-one], the IC50 in data set [1] (setting [5]) is 28.7 nM; in data set [4], 2.69 nM. Also, the Emax is 65 ± 5% in data set [1] and 40 ± 4% in data set [3]. For the same compound, in data set [2], the “CHI IAM” value stood at 42.3. Moreover, a half-maximal effect in data set [3] (setting [7]) (EC50) was put at 1.02 nM.
Regarding `CC(C)N1CCC[C@H](Cn2c(F)nc3ccc(Oc4ccc(Br)cc4F)nc3c2=O)C1` [(S)-17, (S)-6-(4-Bromo-2-fluorophenoxy)-2-fluoro-3-((1-isopropylpiperidin-3-yl)methyl)pyrido[3,2-d]pyrimidin-4(3H)-one], the IC50 in data set [4] was 151 nM.
